The text below walks through data of patent US9862730B2, “Imidazothiadiazole derivatives as protease activated receptor 4 (PAR4) inhibitors for treating platelet aggregation” (BRISTOL-MYERS SQUIBB COMPANY, priority 2012, dated 2018).

In general, IC50 refers to the point on the concentration scale where inhibition reaches its midpoint.

Experiment [1] has as its target T1, PAR4 (Homo sapiens (Human), UniProt Q96RI0). The experiment can be described thus: FLIPR assay in PAR4-expressing HEK293 cells (PAR4 antagonist activity, calcium mobilization). In kind it is cell-based. Particulars: FLIPR assay as described in Example A. In outline:
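HEK293 cells stably expressing human PAR4 (also endogenous PAR1) in HBSS/10 mM HEPES, 0.67% DMSO final. Compound added and read for agonist activity, then 30 min room temperature before PAR4 agonist peptide; intracellular calcium mobilization monitored by FDSS/FLIPR.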
Background: Calcium assays in cells follow changes in intracellular calcium, usually with a dye or a luminescent sensor.

For experiment [2], the target named is T1, PAR4. Kind of experiment: Gamma thrombin induced platelet aggregation assay in PRP (PRP assay). It is filed as cell-based. The source says:
The compounds of the current invention can be tested in vitro for their ability to inhibit platelet aggregation induced by gamma-thrombin as shown in Example C. Gamma-thrombin, a proteolytic product of alpha-thrombin which no longer interacts with PAR1, selectively cleaves and activates PAR4 (Soslau, G. et al., “Unique pathway of thrombin-induced platelet aggregation mediated by glycoprotein Ib”, J. Biol. Chem., 276:21173-21183 (2001)). Platelet aggregation can be monitored in a 96-well microplate aggregation assay format or using standard platelet aggregometer. The aggregation assay can also be employed to test the selectivity of the compound for inhibiting platelet aggregation induced by PAR4 agonist peptides, PAR1 agonist peptide, ADP, or thromboxane analogue U46619.
The platelet rich plasma was isolated by centrifugation at 170 g for 14 minutes.
The ability of the compounds of the current invention to inhibit platelet aggregation induced by gamma-thrombin was tested in a 96-well microplate aggregation assay format. Briefly, PRP or washed platelet suspension (100 μl) was pre-incubated for 5 minutes at room temperature with varying concentrations of compounds. Aggregation was initiated by ˜10-50 nM gamma thrombin (Haematologic Technologies, Essex Junction, Vt.), which was titrated daily to achieve 80% platelet aggregation. Refludan at 1 U/mL (Berlex, Montville, N.J.) was added to the gamma thrombin sample to prevent PAR1 activation induced by residual alpha-thrombin contamination. The plate was then placed into a 37° C. Molecular Devices (Sunnyvale, Calif.) SPECTRAMAX® Plus Plate Reader. […] Data was collected with SOFTMAX® 4.71 software. The plate also included an untreated control sample which served as ODmax, while buffer containing no platelets was the ODmin. Platelet aggregation was determined by subtracting the ODmax from the ODmin for the 100% aggregation value. In experimental samples, the observed transmission was subtracted from the minimum value and then compared to the 100% aggregation value to determine the percentage aggregation. IC50 values are determined using Excel Fit software.
As indicated above, the PRP assay, an in vitro assay, measures the PAR4 antagonist activity of compounds tested as described in Example C.

T1 sequence (Q96RI0 18-385): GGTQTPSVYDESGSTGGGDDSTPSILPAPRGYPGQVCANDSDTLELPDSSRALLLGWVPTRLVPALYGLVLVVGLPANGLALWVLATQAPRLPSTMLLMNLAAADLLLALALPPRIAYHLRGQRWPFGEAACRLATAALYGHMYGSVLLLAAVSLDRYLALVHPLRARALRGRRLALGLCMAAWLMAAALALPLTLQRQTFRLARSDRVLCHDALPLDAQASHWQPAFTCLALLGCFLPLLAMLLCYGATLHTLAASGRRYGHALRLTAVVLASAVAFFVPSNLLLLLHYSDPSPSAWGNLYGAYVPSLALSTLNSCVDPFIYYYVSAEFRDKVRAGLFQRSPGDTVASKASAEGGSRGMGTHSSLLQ

Consider `COc1cc(OCc2ccc(F)cc2)c2cc(-c3cn4nc(C(C)(F)F)sc4n3)oc2c1` [Example 304], for which the IC50 in experiment [1] is 0.0556 µM; in experiment [2], more than 30 µM.
In the same order, the values of `COc1cc(OCc2cccc(OCc3ccccc3CCc3ccccc3)c2)c2cc(-c3cn4nc(OC)sc4n3)oc2c1` [Example 364] are 0.0105 µM and 5.82 µM.
In the same order, the values of `COc1ccc2nc(-c3cn4nc(OC)sc4n3)oc2c1` [Example 164] are 0.0154 µM and 9.16 µM.
Consider `COc1cc(OCc2cccc(OCc3csc(C)n3)c2)c2cc(-c3cn4nc(OC)sc4n3)oc2c1` [Example 399], for which the IC50 is 0.00059 µM in experiment [1] and 0.00495 µM in experiment [2].
In the same order, the values of `COc1cc(OCc2cccc(OCc3cc(Cl)cc(Cl)c3)c2)c2cc(-c3cn4nc(OC)sc4n3)oc2c1` [Example 376] are 0.00727 µM and 0.677 µM.
Take `CCOc1cccc2cc(-c3cn4nc(OC)sc4n3)oc12` [Example 34]: the IC50 was 0.149 µM in experiment [1] and more than 30 µM in experiment [2].
In the same order, the values of `CCc1nn2cc(-c3nc4ccc(OC)cc4o3)nc2s1` [Example 39] are 0.22 µM and more than 30 µM.
Regarding `CCOc1nn2cc(-c3cc4c(OCc5cccc(OCc6ccccc6)c5)cc(OC)cc4o3)nc2s1` [Example 348], the half-maximal inhibitory concentration (IC50) in experiment [1] came to 0.00226 µM; in experiment [2], 3.08 µM.
In the same order, the values of `COc1cc(OCc2ccc(F)cc2)c2cc(-c3cn4nc(Br)sc4n3)oc2c1` [Example 302] are 0.195 µM and more than 30 µM.
In the same order, the values of `COc1ccc(COc2cccc(COc3cc(OC)cc4oc(-c5cn6nc(OC)sc6n5)cc34)c2)cc1` [Example 392] are 0.00144 µM and 0.105 µM.
As for `COc1cc(OCc2cccc(OCc3cccc(C)n3)c2)c2cc(-c3cn4nc(OC)sc4n3)oc2c1` [Example 307], the values for the half-inhibitory concentration (IC50) in experiment [1] and in experiment [2] were 0.00923 µM and 0.101 µM, respectively.
In the same order, the values of `COc1nn2cc(-c3nc4ccccc4s3)nc2s1` [Example 5, 2-(2-Methoxyimidazo[2,1-b][1,3,4]thiadiazol-6-yl)benzo[d]thiazole] are 0.351 µM and more than 30 µM.
In the same order, the values of `COc1cc(OCc2cccc(OCc3ccc(C(C)(C)C)cc3)c2)c2cc(-c3cn4nc(OC)sc4n3)oc2c1` [Example 393] are 0.0359 µM and 2.5 µM.
In the same order, the values of `COc1nn2cc(-c3cc4c(OCc5cccc(OCc6cccc(C)c6)c5)c(Cc5ccccc5)c(OC)cc4o3)nc2s1` [Example 387] are 0.0415 µM and 2.4 µM.
`CCc1nn2cc(-c3nc4cc(F)c(F)cc4o3)nc2s1` [Example 38]: the half-inhibitory concentration (IC50) in experiment [1] is 0.0666 µM; in experiment [2], more than 30 µM.
In the same order, the values of `COc1cc(OCc2cccc(OCc3cccc(OCc4ccccc4)c3)c2)c2cc(-c3cn4nc(OC)sc4n3)oc2c1` [Example 383] are 0.00868 µM and 0.594 µM.
Consider `COc1cc(OC)c2c(C)c(-c3cn4nc(OC)sc4n3)oc2c1` [Example 72], for which the half-inhibitory concentration (IC50) in experiment [1] is 0.00391 µM; in experiment [2] it was 2.33 µM.
In the same order, the values of `COc1ccc2oc(-c3cn4nc(SC)sc4n3)cc2c1` [Example 16] are 0.369 µM and more than 30 µM.
In the same order, the values of `COc1cc(OCc2cccc(OCc3cc(OC(C)C)cc(OC(C)C)c3)c2)c2cc(-c3cn4nc(OC)sc4n3)oc2c1` [Example 371] are 0.00756 µM and 6.91 µM.
In the same order, the values of `COc1cccc2cc(-c3cn4nc(SC)sc4n3)oc12` [Example 14] are 0.00868 µM and 9.44 µM.
As for `COc1cc(OCc2cccc(OCc3cccc(OC)c3OC)c2)c2cc(-c3cn4nc(OC)sc4n3)oc2c1` [Example 353], the IC50 in experiment [1] came to 0.00225 µM; in experiment [2], 0.0105 µM.
In the same order, the values of `COCCOc1cccc2oc(-c3cn4nc(Br)sc4n3)cc12` [Example 252] are 0.121 µM and more than 30 µM.
In the same order, the values of `COc1cc(OCc2cccc(OCc3ccccc3C)c2)c2cc(-c3cn4nc(OC)sc4n3)oc2c1` [Example 363] are 0.00242 µM and 0.0383 µM.
In the same order, the values of `COc1nn2cc(-c3cc4c(OCc5cccc(OCc6ccccc6)c5)cc(OC)c(Cl)c4o3)nc2s1` [Example 415, 6-(4-((3-(Benzyloxy)benzyl)oxy)-7-chloro-6-methoxybenzofuran-2-yl)-2-methoxyimidazo[2,1-b][1,3,4]thiadiazole] are 0.513 µM and 3.27 µM.
For `CSc1nn2cc(-c3nc4c(OC[C@@H]5CCCN5C(=O)[C@H](NC(=O)c5ccccc5)c5ccccc5)cccc4o3)nc2s1` [Example 337, N—((R)-2-((S)-2-(((2-(2-(Methylthio)imidazo[2,1-b][1,3,4]thiadiazol-6-yl)benzo[d]oxazol-4-yl)oxy)methyl)pyrrolidin-1-yl)-2-oxo-1-phenylethyl)benzamide], the IC50 was 0.401 µM in experiment [1] and more than 30 µM in experiment [2].
As for `COc1cc(OCc2cccc(OCc3ccccc3)c2)c2cc(-c3cn4nc([C@H](C)F)sc4n3)oc2c1` [Example 407], the values for the IC50 in experiment [1] and in experiment [2] were 0.00112 µM and 0.463 µM, respectively.
In the same order, the values of `COc1nn2cc(-c3nc4cc(F)ccc4o3)nc2s1` [Example 135] are 0.0496 µM and more than 30 µM.
As to `CSc1nn2cc(-c3cc4ccccc4s3)nc2s1` [Example 17], the IC50 in experiment [2] was more than 30 µM.
As for `COc1cc(OCc2cccc(OCc3cccc(C(F)(F)F)c3F)c2)c2cc(-c3cn4nc(OC)sc4n3)oc2c1` [Example 316], the IC50 in experiment [1] was 0.00417 µM; in experiment [2], 0.0933 µM.
In the same order, the values of `COc1cc(OCc2cccc(OCc3ccc(OC(F)(F)F)cc3)c2)c2cc(-c3cn4nc(OC)sc4n3)oc2c1` [Example 394] are 0.00368 µM and 0.616 µM.
In the same order, the values of `CCOc1cc(OCc2cccc(OCc3ccccc3)c2)c2cc(-c3cn4nc(OC)sc4n3)oc2c1` [Example 426] are 0.00456 µM and 0.566 µM.
In the same order, the values of `CCC(C)(C)c1ccc2oc(-c3cn4nc(SC)sc4n3)nc2c1` [Example 131] are 0.107 µM and more than 30 µM.
For the molecule `Brc1nn2cc(-c3cc4ccccc4o3)nc2s1` [Example 68], the IC50 was found to be 0.0553 µM in experiment [1] and 16.7 µM in experiment [2].
Take `COc1cc(OCc2cccc(OCc3cccc(F)c3)c2)c2cc(-c3cn4nc(OC)sc4n3)oc2c1` [Example 327]: the IC50 in experiment [2] came out at 0.0379 µM.
`CSc1nn2cc(-c3nc4c(OC(C)C)cccc4o3)nc2s1` [Example 159]: the concentration for half-maximal inhibition (IC50) in experiment [1] was 0.0284 µM; in experiment [2], more than 30 µM.
In the same order, the values of `COc1cc(OCc2cccc(OCc3ccccc3)c2)c2cc(-c3cn4nc(Cl)sc4n3)oc2c1` [Example 405] are 0.00469 µM and 0.544 µM.
With `COc1cc(OCc2cccc(OCc3cccnc3)c2)c2cc(-c3cn4nc(OC)sc4n3)oc2c1` [Example 398], the IC50 was 0.00214 µM in experiment [1] and 0.0662 µM in experiment [2].
Regarding `COc1cc(OCc2cccc(OCc3ccc(Oc4ccccc4)cc3)c2)c2cc(-c3cn4nc(OC)sc4n3)oc2c1` [Example 372], the values for the IC50 in experiment [1] and in experiment [2] were 0.00227 µM and 3.41 µM, respectively.
In the same order, the values of `CSc1nn2cc(-c3nc4c(OCc5cccc(OCc6ccccc6)c5)cccc4o3)nc2s1` [Example 173] are 0.0394 µM and 5.28 µM.
Regarding `COc1nn2cc(-c3cc4ccc(OC)c(OC)c4o3)nc2s1` [Example 10, 6-(6,7-Dimethoxybenzofuran-2-yl)-2-methoxyimidazo[2,1-b][1,3,4]thiadiazole], the IC50 in experiment [1] is 1.8 µM; in experiment [2], more than 30 µM.
As for `COc1cc(OCc2cc(Cl)cc(OCc3ccccc3)c2)c2cc(-c3cn4nc(OC)sc4n3)oc2c1` [Example 402], the IC50 in experiment [1] amounted to 0.0062 µM; in experiment [2] it was 0.151 µM.
Regarding `COc1cc(COc2cccc(COc3cc(OC)cc4oc(-c5cn6nc(OC)sc6n5)cc34)c2)cc(OCc2ccccc2)c1` [Example 373], the results for the IC50 in experiment [1] and in experiment [2] were 0.00763 µM and 2.5 µM, respectively.
In the same order, the values of `COc1cc(COc2cc(OC)cc3oc(-c4cn5nc(OC)sc5n4)cc23)cc(OCc2ccccc2)c1` [Example 404] are 0.00244 µM and 0.0225 µM.
In the same order, the values of `COc1cc(OCc2cccc(OCc3ccccc3F)c2)c2cc(-c3cn4nc(OC)sc4n3)oc2c1` [Example 318] are 0.00192 µM and 0.0365 µM.
With `CCOc1nn2cc(-c3cc4ccccc4o3)nc2s1` [Example 26], the IC50 in experiment [2] is more than 30 µM.
